Where a SMILES comes first, the peptide text is derived from it. Bridges are numbered along the chain shown (N, C = ends). [ ]: non-standard residue; d: D form. The star is where a group is joined. dPhe(4-NHCONH2) = NC(=O)Nc1ccc(C[C@@H](N)C(=O)O)cc1; Phe(4-Cl) = N[C@@H](Cc1ccc(Cl)cc1)C(=O)O; X1 = NCCNCC(CNCCN)C(=O)*
Columns and labels:
[1] = target: T1, HEK-SST2 cells (human SST2 receptor) (Homo sapiens, UniProt P30874); experiment: Internalization and cell-surface binding in HEK-SST2 cells; type: cell-based; conditions: for internalization (internalized fraction) / cell surface binding: 37 °C; for cell surface binding: % of total radioactivity added
T1 construct: expressed in transfected cells; host or cells: HEK293 (HEK-SST2), provided by Prof; Stefan Schulz, Jena University Hospital

[2] = design: species or system human
From the text: To account for various possible locations of the tumour, we used two S-values. One was the value for the liver and is representative for the liver lesions. Other was the “average abdominal S-value”, which was the average S-value for the following organs: stomach, liver, gallbladder, spleen, pancreas, small intestine, kidneys, large intestine, and adrenal glands. Estimated dose to various organs, average total body dose and effective dose are summarized in Table 3 for both radiotracers and two typical tumour locations.
Dosimetric calculations were based on the biodistribution of [^99mTc]Tc-TECANT-1 and [^99mTc]Tc-TECANT-2 (Table 3). […] Percent of injected activity per organ in a human model was evaluated according to the animal data extrapolation model:(2) (%IA/organ)human=[(%IA/g)mouse×Mmouse(g)]×(m(g)/M(kg))human
Here m is the organ mass and M is the total body weight of mouse or human. Average total weight of the mouse was measured, while human phantom has the total weight of 73 kg. The %IA/g and %IA/organ is the percentage of the injected activity concentration (i.e., per gram of tissue) and per organ, respectively. For the tumour, we assumed that the percent of injected activity uptake into the tumour is the same for mouse and human.
Subsequently, percentage of the injected activity per organ was folded with the decay curve of ^99mTc and interpolated with the exponential function. The interpolation function was used to estimate initial %ID/organ and the time-integrated activity concentration (TIAC). Absorbed dose per injected activity for various organs was calculated with the TIAC factors and S-values for a standard person from the OpenDose project. Effective dose was evaluated according to the ICRP 103 recommendations.
We also assumed that the remaining activity from the organs and tumour ends up in the bladder.

[3] = target: T1, HEK-SST2 cells (human SST2 receptor); experiment: Dissociation of cell-surface bound radiotracer with or without competitor; type: cell-based; conditions: for total binding remaining (dissociation assay): after 4 h; for total binding remaining (dissociation assay) / bound fraction still remaining in the cells: 37 °C; for bound fraction still remaining in the cells: presence of excess of the competitor
[4] = type: physicochemical; conditions: pH 7.4
Method: Determination of the distribution coefficient (log D) was performed by the shake-flask method in 1:1 mixture of octanol/Phosphate buffered saline (PBS). Then, 50 µL of [^99mTc]Tc-TECANT-1 or [^99mTc]Tc-TECANT-2 solution was diluted up to 500 µL with PBS (pH 7.4; 8 mM phosphate). Next, 20 µL of this solution was added to six eppendorf tubes, each containing 500 µL octanol and 480 µL PBS. The samples were vortexed for 15 min at 1400 rpm followed by centrifugation for 2 min at 4500 rpm. Aliquots of 100 µL from each phase were taken and measured in a γ-counter. The log D was calculated as the average of the logarithmic values (n = 3, six technical replicates) of the ratio between the radioactivity in the octanol and the PBS phase.

[5] = in vivo; conditions: female, mouse, 20 pmol, total radioactivity
[6] = athymic nude-Foxn1^nu/Foxn1^+, Biodistribution Heart
[7] = athymic nude-Foxn1^nu/Foxn1^+, Biodistribution Liver
[8] = athymic nude-Foxn1^nu/Foxn1^+, Biodistribution Lung
[9] = athymic nude-Foxn1^nu/Foxn1^+, Biodistribution Pancreas
[10] = athymic nude-Foxn1^nu/Foxn1^+, Biodistribution Spleen
[11] = athymic nude-Foxn1nu/Foxn1+, Biodistribution Adrenals
[12] = athymic nude-Foxn1nu/Foxn1+, Biodistribution Blood
[13] = athymic nude-Foxn1nu/Foxn1+, Biodistribution Bone
[14] = athymic nude-Foxn1nu/Foxn1+, Biodistribution HEK-SST2 (+) tumour uptake
[15] = athymic nude-Foxn1nu/Foxn1+, Biodistribution HEK-SST2 (−) tumour uptake
[16] = athymic nude-Foxn1nu/Foxn1+, Biodistribution Intestine
[17] = athymic nude-Foxn1nu/Foxn1+, Biodistribution Kidneys
[18] = athymic nude-Foxn1nu/Foxn1+, Biodistribution Muscle
[19] = athymic nude-Foxn1nu/Foxn1+, Biodistribution Pituitary
[20] = athymic nude-Foxn1nu/Foxn1+, Biodistribution Stomach

T1 sequence (P30874 whole entry): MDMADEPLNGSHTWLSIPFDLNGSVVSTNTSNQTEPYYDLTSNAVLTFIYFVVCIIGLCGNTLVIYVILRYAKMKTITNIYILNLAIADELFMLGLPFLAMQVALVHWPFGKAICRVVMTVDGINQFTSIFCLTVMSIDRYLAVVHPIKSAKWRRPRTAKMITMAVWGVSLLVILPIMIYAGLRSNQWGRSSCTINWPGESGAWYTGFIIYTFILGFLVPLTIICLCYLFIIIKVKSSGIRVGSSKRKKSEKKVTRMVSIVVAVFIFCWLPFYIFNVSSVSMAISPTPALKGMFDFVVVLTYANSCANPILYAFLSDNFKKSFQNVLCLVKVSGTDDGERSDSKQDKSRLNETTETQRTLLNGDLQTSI

Structure (SMILES): C[C@@H](O)[C@@H]1NC(=O)[C@H](CCCCN)NC(=O)[C@@H](Cc2ccc(NC(N)=O)cc2)NC(=O)[C@H](Cc2ccc(O)cc2)NC(=O)[C@H](NC(=O)[C@H](Cc2ccc(Cl)cc2)NC(=O)C(CNCCN)CNCCN)CSSC[C@@H](C(=O)N[C@H](Cc2ccc(O)cc2)C(N)=O)NC1=O [[^99mTc]Tc-TECANT-1, metal not drawn] (X1-[Phe(4-Cl)][dC]Y[dPhe(4-NHCONH2)]KTC[dY]-NH2; disulfide 2-7)
- internalization (internalized fraction) ([1]; 30 min): 4.1 ± 0.1%
- internalization (internalized fraction) ([1]; 4 h): 13.4 ± 1.7%
- cell surface binding ([1]; 4 h): 50.7 ± 1.7%
- cellular uptake ([1]; at 2 h/37 °C): > 50%
- Average total body dose [2]: 3.2 μGy/MBq
- Dose Bone [2]: 3.9 μGy/MBq
- Dose Muscle [2]: 2.4 μGy/MBq
- Dose Red marrow [2]: 3.3 μGy/MBq
- Dose Small intestine wall [2]: 1.9 μGy/MBq
- biological half-life of clearance of remaining activity (rest of the body) to the bladder [2]: 9.7 h
- effective dose [2]: 4.9 mSv
- fraction dissociated ([3]; HEK-SST2 cells, at 2 h/37 °C): < 30%
- estimated dissociation half-life ([3]; absence of competitor): 98 min
- total binding remaining (dissociation assay) ([3]; absence of competitor): 58.8 ± 3.3%
- estimated dissociation half-life ([3]; presence of competitor): 19 min
- bound fraction still remaining in the cells [3]: 7.9 ± 2.2%
- logD [4]: -2.53 ± 0.19
- tissue uptake at 1 h [5, 6]: 0.71 ± 0.1 %ID/g
- tissue uptake at 4 h [5, 6]: 0.24 ± 0.06 %ID/g
- tissue uptake at 24 h [5, 6]: 0.05 ± 0.02 %ID/g
- tissue uptake at 1 h [5, 7]: 3.13 ± 0.43 %ID/g
- tissue uptake at 4 h [5, 7]: 1.9 ± 0.41 %ID/g
- tissue uptake at 24 h [5, 7]: 0.6 ± 0.1 %ID/g
- tissue uptake at 1 h [5, 8]: 8.94 ± 3.92 %ID/g
- tissue uptake at 4 h [5, 8]: 3.07 ± 1.16 %ID/g
- tissue uptake at 24 h [5, 8]: 0.26 ± 0.04 %ID/g
- tissue uptake at 1 h [5, 9]: 47.8 ± 7.86 %ID/g
- tissue uptake at 4 h [5, 9]: 16.9 ± 3.97 %ID/g
- tissue uptake at 24 h [5, 9]: 1.08 ± 0.19 %ID/g
- tissue uptake at 1 h [5, 10]: 1.3 ± 0.41 %ID/g
- tissue uptake at 4 h [5, 10]: 0.57 ± 0.11 %ID/g
- tissue uptake at 24 h [5, 10]: 0.2 ± 0.01 %ID/g
- tissue uptake at 1 h [5, 11]: 7.11 ± 3.04 %ID/g
- tissue uptake at 4 h [5, 11]: 4.36 ± 1.88 %ID/g
- tissue uptake at 24 h [5, 11]: 0.85 ± 0.18 %ID/g
- tissue uptake at 1 h [5, 12]: 0.79 ± 0.09 %ID/g
- tissue uptake at 4 h [5, 12]: 0.23 ± 0.05 %ID/g
- tissue uptake at 24 h [5, 12]: 0.03 %ID/g
- tissue uptake at 1 h [5, 13]: 1.41 ± 0.77 %ID/g
- tissue uptake at 4 h [5, 13]: 0.59 ± 0.23 %ID/g
- tissue uptake at 24 h [5, 13]: 0.35 ± 0.07 %ID/g
- tissue uptake at 1 h [5, 14]: 21 ± 3.92 %ID/g
- tissue uptake at 4 h [5, 14]: 26 ± 1.33 %ID/g
- tissue uptake at 24 h [5, 14]: 19 ± 2 %ID/g
- tissue uptake at 4 h [5, 15]: 0.88 ± 0.37 %ID/g
- tissue uptake at 1 h [5, 16]: 6.48 ± 4.37 %ID/g
- tissue uptake at 4 h [5, 16]: 2.4 ± 1.9 %ID/g
- tissue uptake at 24 h [5, 16]: 0.31 ± 0.08 %ID/g
- tissue uptake at 1 h [5, 17]: 16.3 ± 1.83 %ID/g
- tissue uptake at 4 h [5, 17]: 12.6 ± 2.54 %ID/g
- tissue uptake at 24 h [5, 17]: 2.42 ± 0.2 %ID/g
- tissue uptake at 1 h [5, 18]: 0.23 ± 0.05 %ID/g
- tissue uptake at 4 h [5, 18]: 0.12 ± 0.06 %ID/g
- tissue uptake at 24 h [5, 18]: 0.05 ± 0.01 %ID/g
- tissue uptake at 1 h [5, 19]: 9.71 ± 2.81 %ID/g
- tissue uptake at 4 h [5, 19]: 6.66 ± 3.67 %ID/g
- tissue uptake at 24 h [5, 19]: 4.35 ± 2.87 %ID/g
- tissue uptake at 1 h [5, 20]: 36.5 ± 7.89 %ID/g
- tissue uptake at 4 h [5, 20]: 13.6 ± 3.86 %ID/g
- tissue uptake at 24 h [5, 20]: 1.42 ± 0.27 %ID/g

Structure (SMILES): C[C@@H](O)[C@@H]1NC(=O)[C@H](CCCCN)NC(=O)[C@@H](Cc2c[nH]c3ccccc23)NC(=O)[C@H](Cc2ccc(O)cc2)NC(=O)[C@H](NC(=O)[C@H](Cc2ccc(Cl)cc2)NC(=O)C(CNCCN)CNCCN)CSSC[C@@H](C(=O)N[C@H](Cc2ccc(O)cc2)C(N)=O)NC1=O [[^99mTc]Tc-TECANT-2, metal not drawn]
- internalization (internalized fraction) ([1]; 30 min): 4.4 ± 0.5%
- internalization (internalized fraction) ([1]; 4 h): 11.7 ± 1.4%
- cell surface binding ([1]; 4 h): 36.9 ± 8.5%
- Average total body dose [2]: 3.3 μGy/MBq
- Dose Bone [2]: 4.0 μGy/MBq
- Dose Muscle [2]: 2.6 μGy/MBq
- Dose Red marrow [2]: 3.4 μGy/MBq
- Dose Small intestine wall [2]: 1.9 μGy/MBq
- biological half-life of clearance of remaining activity (rest of the body) to the bladder [2]: 13.3 h
- effective dose [2]: 4.3 mSv
- estimated dissociation half-life ([3]; absence of competitor): 40.3 min
- total binding remaining (dissociation assay) ([3]; absence of competitor): 27.2 ± 6.3%
- estimated dissociation half-life ([3]; presence of competitor): 7.5 min
- bound fraction still remaining in the cells [3]: 1.1 ± 0.1%
- logD [4]: -1.63 ± 0.16
- tissue uptake at 1 h [5, 6]: 1.64 ± 0.6 %ID/g
- tissue uptake at 4 h [5, 6]: 0.26 ± 0.05 %ID/g
- tissue uptake at 24 h [5, 6]: 0.05 ± 0.01 %ID/g
- tissue uptake at 1 h [5, 7]: 5.38 ± 1.36 %ID/g
- tissue uptake at 4 h [5, 7]: 3.72 ± 0.92 %ID/g
- tissue uptake at 24 h [5, 7]: 1.07 ± 0.24 %ID/g
- tissue uptake at 1 h [5, 8]: 17 ± 5.75 %ID/g
- tissue uptake at 4 h [5, 8]: 2.52 ± 0.53 %ID/g
- tissue uptake at 24 h [5, 8]: 0.3 ± 0.05 %ID/g
- tissue uptake at 1 h [5, 9]: 16.4 ± 4.53 %ID/g
- tissue uptake at 4 h [5, 9]: 1.96 ± 0.58 %ID/g
- tissue uptake at 24 h [5, 9]: 0.12 ± 0.05 %ID/g
- tissue uptake at 1 h [5, 10]: 1.61 ± 0.46 %ID/g
- tissue uptake at 4 h [5, 10]: 0.55 ± 0.15 %ID/g
- tissue uptake at 24 h [5, 10]: 0.24 ± 0.06 %ID/g
- tissue uptake at 1 h [5, 11]: 5.14 ± 1.79 %ID/g
- tissue uptake at 4 h [5, 11]: 1.25 ± 0.33 %ID/g
- tissue uptake at 24 h [5, 11]: 0.73 ± 0.2 %ID/g
- tissue uptake at 1 h [5, 12]: 1.8 ± 0.44 %ID/g
- tissue uptake at 4 h [5, 12]: 0.23 ± 0.05 %ID/g
- tissue uptake at 24 h [5, 12]: 0.03 ± 0.01 %ID/g
- tissue uptake at 1 h [5, 13]: 1.67 ± 0.94 %ID/g
- tissue uptake at 4 h [5, 13]: 0.41 ± 0.14 %ID/g
- tissue uptake at 24 h [5, 13]: 0.2 ± 0.19 %ID/g
- tissue uptake at 1 h [5, 14]: 19.1 ± 4.47 %ID/g
- tissue uptake at 4 h [5, 14]: 28.4 ± 4.84 %ID/g
- tissue uptake at 24 h [5, 14]: 11 ± 4.69 %ID/g
- tissue uptake at 4 h [5, 15]: 0.38 ± 0.13 %ID/g
- tissue uptake at 1 h [5, 16]: 4.05 ± 1.12 %ID/g
- tissue uptake at 4 h [5, 16]: 0.86 ± 0.4 %ID/g
- tissue uptake at 24 h [5, 16]: 0.31 ± 0.17 %ID/g
- tissue uptake at 1 h [5, 17]: 43.6 ± 11.4 %ID/g
- tissue uptake at 4 h [5, 17]: 25.9 ± 5.23 %ID/g
- tissue uptake at 24 h [5, 17]: 3.42 ± 1.44 %ID/g
- tissue uptake at 1 h [5, 18]: 0.69 ± 0.22 %ID/g
- tissue uptake at 4 h [5, 18]: 0.15 ± 0.04 %ID/g
- tissue uptake at 24 h [5, 18]: 0.06 ± 0.03 %ID/g
- tissue uptake at 1 h [5, 19]: 4.74 ± 1.5 %ID/g
- tissue uptake at 4 h [5, 19]: 1.21 ± 0.86 %ID/g
- tissue uptake at 24 h [5, 19]: 2.12 ± 1.36 %ID/g
- tissue uptake at 1 h [5, 20]: 14.6 ± 4.89 %ID/g
- tissue uptake at 4 h [5, 20]: 2.17 ± 0.39 %ID/g
- tissue uptake at 24 h [5, 20]: 0.45 ± 0.08 %ID/g
